From patent US9937235B2, “Lipidated peptides as anti-obesity agents” (USTAV ORGANICKE CHEMIE A BIOCHEMIE AKADEMIE VED CR, V.V.I, priority 2012, dated 2018)
Where a SMILES comes first, the peptide text is derived from it. The star is where a group is joined. Myristoyl = CCCCCCCCCCCCCC(=O)*

Tests used:
[1] = target: T1, rat PrRP receptor (GPR10) in RC-4B/C cells (Rattus norvegicus, UniProt Q64121); conditions: Maletínská et al., 2011; cited from earlier work
T1 construct: The rat pituitary cell line RC-4B/C (ATCC, Manassas, USA) was grown on 24-well plates; host or cells: RC-4B/C rat pituitary cell line
T1 sequence (Q64121 1-370): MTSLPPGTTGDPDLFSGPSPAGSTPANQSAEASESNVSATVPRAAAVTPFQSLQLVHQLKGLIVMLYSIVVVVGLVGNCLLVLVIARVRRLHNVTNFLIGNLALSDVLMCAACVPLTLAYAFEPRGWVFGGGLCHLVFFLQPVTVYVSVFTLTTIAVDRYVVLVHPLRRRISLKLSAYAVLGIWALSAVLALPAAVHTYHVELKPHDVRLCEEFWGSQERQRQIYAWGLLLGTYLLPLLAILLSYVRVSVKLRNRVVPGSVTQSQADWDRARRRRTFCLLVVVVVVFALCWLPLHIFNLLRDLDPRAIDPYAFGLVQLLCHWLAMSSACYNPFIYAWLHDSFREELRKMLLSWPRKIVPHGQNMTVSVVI

[2] = test system: fasted C57BL/6 mice; assay: Food intake in fasted mice after SC administration; assay type: in vivo, mouse; conditions: fasted C57BL/6 mice, 5 mg/kg SC, 45 min
In short: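 Male C57BL/6 mice, food-deprived 17 h, received saline, PrRP or lipidated analogs either SC at 1-10 mg/kg or ICV into the third ventricle at 4 nmol/mouse.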

[3] = test system: Rhesus monkey; assay type: in vivo; conditions: single SC 1.0 mg/kg or 2.0 mg/kg, overnight fasted, between 1-6 hours, vs saline
Protocol: Food intake (amount of pellets consumed) was measured in Rhesus monkey (n=4) after a single subcutaneous administration of myristoylated human PrRP20 (analog no. 55).
The study was conducted on overnight fasted animals in Meditox breeding facility (Konárovice, Czech Republic). Each animal received a subcutaneous injection of saline, or of analog 55 in a dose of 1.0 mg/kg or 2.0 mg/kg. Test item formulation was prepared in saline solution as a fresh solution, just before dosing. […] Food intake monitoring was performed 2, 4, 8 and 24 hours after single administration. […] While preferred embodiments of the present invention have been shown and described herein, it will be obvious to those skilled in the art that such embodiments are provided by way of example only. Numerous variations, changes, and substitutions will now occur to those skilled in the art without departing from the invention. It should be understood that various alternatives to the embodiments of the invention described herein may be employed in practicing the invention. It is intended that the following claims define the scope of the invention and that methods and structures within the scope of these claims and their equivalents be covered thereby.

| Compound | Kb of binding to the pituitary cell line RC-4B/C [1] | Food intake in mice (5 mg/kg SC) % saline-treated group (45 min) [2] [%] | Food intake (amount of pellets consumed) [3] |
| --- | --- | --- | --- |
| [Tyr^31]PrRP20: N-acetylated PrRP20 analog, C-terminal phenylalanine replaced by tyrosine (Maletínská et al., 2011) (Ac-TPDINPAWYASRGIRPVGRY-NH2; ends and bridges not checked; UniProt P81277 34-53, looked up, variant F31Y) | comparable to values for PrRP31 and PrRP20 | – | – |
| CCCCCCCCCCCCCC(=O)N[C@H](C(=O)N1CCC[C@H]1C(=O)N[C@@H](CC(=O)O)C(=O)N[C@H](C(=O)N[C@@H](CC(N)=O)C(=O)N1CCC[C@H]1C(=O)N[C@@H](C)C(=O)N[C@@H](Cc1c[nH]c2ccccc12)C(=O)N[C@@H](Cc1ccc(O)cc1)C(=O)N[C@@H](C)C(=O)N[C@@H](CO)C(=O)N[C@@H](CCCNC(=N)N)C(=O)NCC(=O)N[C@H](C(=O)N[C@@H](CCCNC(=N)N)C(=O)N1CCC[C@H]1C(=O)N[C@H](C(=O)NCC(=O)N[C@@H](CCCNC(=N)N)C(=O)N[C@@H](Cc1ccccc1)C(N)=O)C(C)C)[C@@H](C)CC)[C@@H](C)CC)[C@@H](C)O [Analog 55] (Myristoyl-TPDINPAWYASRGIRPVGRF-NH2) | – | 10 | Significantly lower food intake |
